Literature values in paper PMC10356740 (Journal of sleep research, 2023).

Columns and labels:
[1] = test system: orexin/ataxin-3 mice; details: chronic dosing for up to 14 days; ref Ishikawa et al., 2020; cited from earlier work
[2] = test system: Hcrt-neuron ablated mice; details: ref Kimura et al., 2019; cited from earlier work
[3] = Phase 2; led Takeda to suspend dosing; cited from earlier work
[4] = test system: OX1R; details: OX2R over OX1R; ref Kimura et al., 2019; cited from earlier work
[5] = test system: OX2R; details: read-out: EC50 on OX2R; ref Kimura et al., 2019; cited from earlier work
[6] = test system: wild-type mice; details: oral, 5h into the light period, normal sleep phase; ref Ishikawa et al., 2019; cited from earlier work

Question: For `CC(C)(O)C(=O)N1CC[C@H](NS(C)(=O)=O)[C@@H]1Cc1cccc(-c2cc(F)cc(F)c2)c1F.CC(C)(O)C(=O)N1CC[C@H](NS(C)(=O)=O)[C@@H]1Cc1cccc(-c2cc(F)cc(F)c2)c1F.O.O.O` [TAK-994], which Sleep rebound [1] is on record?
Answer: without causing a sleep rebound

Question: What about the “Wakefulness after chronic dosing” value [1] of the same molecule?
Answer: wake-promoting effects

Question: And the Cataplectic episodes [2]?
Answer: suppressing cataplectic episodes

Question: What about the “Time spent in wake” value [2] of the same molecule?
Answer: increased time spent in wake

Question: What about the Wake maintenance [2] of the same molecule?
Answer: improved wake maintenance

Question: And the Safety [3]?
Answer: a safety signal emerged

Question: And the “selectivity against OX1R” value [4]?
Answer: > 700 fold

Question: And the EC50 [5]?
Answer: 0.019 µM

Question: What about the Wakefulness [6] of the same molecule?
Answer: promoted wakefulness
